# ChEMBL document CHEMBL1201862, “PubChem BioAssay data set” (2004)
# Structures can show the parent of a compound that is named as a salt. Active and inactive are the calls of the source.
# How the values were obtained:
# [1] = viability of PTEN-deleted HCT116 cells – cell-based, HCT116 PTEN knockout, dose response (AID 1047); format: functional;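 note: HCT116 colon tumor cells with PTEN knocked out; cells exposed to compound for 60 hours before readout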
# [2] = biological target: Protein-tyrosine kinase 2-beta (Homo sapiens, UniProt Q14289);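 note: potency of inhibitors of PYK2 kinase phosphorylation of poly-GT substrate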
# [3] = viability of HCT116 lacking mutant beta-catenin – cell-based, human colon tumor, dose response (AID 1045); format: functional;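 note: HCT116 colon tumor cells with beta catenin knocked out; cells exposed to compound for 60 hours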
# [4] = Luminescence Cell-Based Dose Retest to Confirm Inhibitors of Cancer Stem Cells. [Related pubchem assays (depositor defined):AID2717, AID2721]; format: functional; conditions: Homo sapiens
# [5] = biological target: T1, Microphthalmia-associated transcription factor (Homo sapiens, UniProt O75030); test: reducers of TRPM1 reporter luminescence, concentration series – cell-based, SK-MEL-5, cherry-picked, set 3, MITF inhibitor project, dose response (AID 493073); format: functional;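 note: SK-MEL-5 melanoma cells with luciferase driven by the MITF target TRPM1 promoter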
# T1 sequence (O75030 whole entry): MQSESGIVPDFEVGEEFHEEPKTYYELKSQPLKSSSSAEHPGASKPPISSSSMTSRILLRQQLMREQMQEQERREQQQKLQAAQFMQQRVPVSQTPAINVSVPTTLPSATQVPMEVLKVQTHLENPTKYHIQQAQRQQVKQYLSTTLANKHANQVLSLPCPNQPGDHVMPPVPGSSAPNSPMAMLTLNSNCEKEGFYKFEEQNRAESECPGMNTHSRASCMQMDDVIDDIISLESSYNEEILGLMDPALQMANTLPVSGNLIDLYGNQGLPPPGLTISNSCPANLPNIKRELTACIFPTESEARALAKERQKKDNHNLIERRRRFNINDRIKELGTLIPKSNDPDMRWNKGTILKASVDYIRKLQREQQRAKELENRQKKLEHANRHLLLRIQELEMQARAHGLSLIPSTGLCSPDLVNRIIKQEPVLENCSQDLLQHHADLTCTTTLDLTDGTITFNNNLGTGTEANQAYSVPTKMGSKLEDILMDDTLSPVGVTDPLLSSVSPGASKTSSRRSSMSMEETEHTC
# [6] = biological target: T2, Apoptotic protease-activating factor 1 (Homo sapiens, UniProt O14727); format: functional
# T2 sequence (O14727 whole entry): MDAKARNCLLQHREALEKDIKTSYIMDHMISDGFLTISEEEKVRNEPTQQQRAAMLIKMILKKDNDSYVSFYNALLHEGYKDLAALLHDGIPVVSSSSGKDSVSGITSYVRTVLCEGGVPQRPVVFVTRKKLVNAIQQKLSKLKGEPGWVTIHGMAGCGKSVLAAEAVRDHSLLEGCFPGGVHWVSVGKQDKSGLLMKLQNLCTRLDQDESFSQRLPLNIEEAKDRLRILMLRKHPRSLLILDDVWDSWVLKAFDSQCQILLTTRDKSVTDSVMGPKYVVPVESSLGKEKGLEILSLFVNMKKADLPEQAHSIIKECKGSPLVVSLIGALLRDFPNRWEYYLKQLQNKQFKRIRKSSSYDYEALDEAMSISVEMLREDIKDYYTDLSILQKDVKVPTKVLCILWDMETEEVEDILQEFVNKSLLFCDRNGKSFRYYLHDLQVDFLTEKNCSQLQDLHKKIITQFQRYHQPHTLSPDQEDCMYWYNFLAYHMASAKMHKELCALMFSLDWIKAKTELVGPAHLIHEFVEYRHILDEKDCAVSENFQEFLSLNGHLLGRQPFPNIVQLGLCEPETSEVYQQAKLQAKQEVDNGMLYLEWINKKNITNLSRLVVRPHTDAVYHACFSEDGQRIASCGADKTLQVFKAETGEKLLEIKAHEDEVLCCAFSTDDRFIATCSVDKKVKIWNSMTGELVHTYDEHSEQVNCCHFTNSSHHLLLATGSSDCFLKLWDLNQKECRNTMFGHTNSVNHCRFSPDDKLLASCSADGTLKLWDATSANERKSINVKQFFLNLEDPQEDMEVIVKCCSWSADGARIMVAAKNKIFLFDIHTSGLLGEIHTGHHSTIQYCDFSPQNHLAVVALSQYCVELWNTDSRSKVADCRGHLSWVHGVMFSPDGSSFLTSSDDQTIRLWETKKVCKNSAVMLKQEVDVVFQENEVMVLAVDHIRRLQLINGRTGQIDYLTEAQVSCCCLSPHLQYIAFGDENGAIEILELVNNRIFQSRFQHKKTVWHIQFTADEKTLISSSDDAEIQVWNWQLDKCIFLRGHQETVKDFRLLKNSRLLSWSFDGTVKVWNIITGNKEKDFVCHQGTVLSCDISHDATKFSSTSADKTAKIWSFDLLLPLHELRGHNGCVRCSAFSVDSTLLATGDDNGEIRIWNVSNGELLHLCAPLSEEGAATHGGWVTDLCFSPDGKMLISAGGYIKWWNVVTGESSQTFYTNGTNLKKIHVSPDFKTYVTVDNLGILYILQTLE
# A-375 = test: proliferation inhibition in MITF-low A375 cells – cell-based, cherry-pick samples, set 2, counter-screen for MITF modulator project, dose response (AID 540335); format: functional; conditions: Homo sapiens
# [7] = biological target: 26S proteasome non-ATPase regulatory subunit 14 (Homo sapiens, UniProt O00487); test: inhibition of proteasome subunit RPN11 – biochemical, fluorescence polarization, uHTS hits, confirmation (AID 602368); format: functional
# [8] = biological target: 72 kDa type IV collagenase (Homo sapiens, UniProt P08253); test: Dose Response validation of uHTS RPN11 inhibitor hits using a MMP-2 Fluorescence assay.; format: functional
# Prothrombin = Prothrombin (Bos taurus, UniProt P00735); test: thrombin protease inhibitors – biochemical, fluorescence polarization, uHTS hits, dose response (AID 602369); format: functional
# Ephrin type-A receptor 4 = Ephrin type-A receptor 4 (Mus musculus, UniProt Q03137); test: EphA4 ligand-binding antagonists – biochemical, colorimetric, mouse EphA4, primary screen (AID 689); format: functional
# Genome polyprotein = Genome polyprotein (Hepatitis C virus, UniProt Q2Q167); test: disruption of hepatitis C core self-association – biochemical, TR-FRET, dose response (AID 2159); design: species or system Hepacivirus hominis;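 note: blocks dimerization of HCV core protein measured by TR-FRET between tagged core106 pairs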
# [9] = biological target: T3, RNA-binding protein pos-1 (Caenorhabditis elegans, UniProt G5EF15); test: disruptors of C. elegans POS-1 RNA interaction – biochemical, fluorescence polarization, dose response (AID 1964);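 note: purified POS-1 fused to maltose binding protein made in E. coli; potency of compounds blocking POS-1 binding to fluorescent RNA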
# T3 sequence (G5EF15 whole entry): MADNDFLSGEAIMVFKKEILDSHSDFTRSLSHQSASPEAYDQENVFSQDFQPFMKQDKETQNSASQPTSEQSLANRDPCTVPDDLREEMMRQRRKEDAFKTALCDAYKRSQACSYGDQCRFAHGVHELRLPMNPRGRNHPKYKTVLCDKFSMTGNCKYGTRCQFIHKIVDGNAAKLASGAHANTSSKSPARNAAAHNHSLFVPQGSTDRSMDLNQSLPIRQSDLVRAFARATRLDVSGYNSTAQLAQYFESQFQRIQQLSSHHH
# [10] = biological target: T4, Zinc finger protein mex-5 (Caenorhabditis elegans, UniProt Q9XUB2); test: potency of MEX-5 RNA-binding blockers – biochemical, C. elegans, fluorescence polarization, dose response (AID 1960)
# T4 sequence (Q9XUB2 whole entry): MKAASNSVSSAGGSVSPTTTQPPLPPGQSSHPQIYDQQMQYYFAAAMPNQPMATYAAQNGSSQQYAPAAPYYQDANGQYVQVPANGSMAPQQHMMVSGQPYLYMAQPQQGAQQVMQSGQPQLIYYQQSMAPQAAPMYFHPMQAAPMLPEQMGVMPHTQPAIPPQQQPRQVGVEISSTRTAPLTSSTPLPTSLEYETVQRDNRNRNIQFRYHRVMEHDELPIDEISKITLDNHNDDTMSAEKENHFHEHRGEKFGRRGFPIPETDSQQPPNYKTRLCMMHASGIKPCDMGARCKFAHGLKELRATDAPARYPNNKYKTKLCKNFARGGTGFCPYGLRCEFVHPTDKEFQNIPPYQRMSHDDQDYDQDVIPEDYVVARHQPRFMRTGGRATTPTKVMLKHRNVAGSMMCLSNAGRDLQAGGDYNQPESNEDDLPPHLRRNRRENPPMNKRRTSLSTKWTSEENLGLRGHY
# [11] = biological target: Luciferin 4-monooxygenase (Photinus pyralis, UniProt P08659); test: Counter Screen for Luciferase-based Assay Positives. [Related pubchem assays: 620, 618, 411 ]
# Vero = test: mammalian cell viability reduction – secondary assay, cytotoxicity control for West Nile virus antiviral project, dose response (AID 1650); format: functional; conditions: Chlorocebus sabaeus
# [12] = biological target: T5, Kappa-type opioid receptor (Homo sapiens, UniProt P41145); format: functional
# HT-1080 = test: HT1080 cell viability loss – fluorescence readout (AID 620); format: functional, cell-based; conditions: Homo sapiens
# Beta-galactosidase = Beta-galactosidase (Escherichia coli, UniProt Q8VNN2); format: functional
# [13] = biological target: T5, Kappa-type opioid receptor; format: functional; remark: listed apart in the source
# [14] = HEK-293T viability loss after treatment – luminescence, T-cell screen hits, cytotoxicity control for TCR NF-kB inhibitor project, dose response (AID 489026); format: functional, cell-based;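 note: cells exposed to compound about 14 hours before the viability readout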
# Nonstructural protein 1 = Nonstructural protein 1 (Influenza A virus, UniProt Q194T2); format: functional, Influenza A virus (A/California/07/2009(H1N1))
# [15] = biological target: T6, Heat shock factor protein 1 (Mus musculus, UniProt P38532); test: enhancement of HSF1-driven luciferase signal – cell-based, NIH3T3, luminescence, dose retest, confirmation (AID 435004); format: functional;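 note: stress induced by proteasome inhibitor MG132 added 30 min after compound; luciferase reporter driven by HSF1 response element in NIH3T3 cells; actives raise luminescence as potentiators of the MG132 stress response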
# T6 sequence (P38532 whole entry): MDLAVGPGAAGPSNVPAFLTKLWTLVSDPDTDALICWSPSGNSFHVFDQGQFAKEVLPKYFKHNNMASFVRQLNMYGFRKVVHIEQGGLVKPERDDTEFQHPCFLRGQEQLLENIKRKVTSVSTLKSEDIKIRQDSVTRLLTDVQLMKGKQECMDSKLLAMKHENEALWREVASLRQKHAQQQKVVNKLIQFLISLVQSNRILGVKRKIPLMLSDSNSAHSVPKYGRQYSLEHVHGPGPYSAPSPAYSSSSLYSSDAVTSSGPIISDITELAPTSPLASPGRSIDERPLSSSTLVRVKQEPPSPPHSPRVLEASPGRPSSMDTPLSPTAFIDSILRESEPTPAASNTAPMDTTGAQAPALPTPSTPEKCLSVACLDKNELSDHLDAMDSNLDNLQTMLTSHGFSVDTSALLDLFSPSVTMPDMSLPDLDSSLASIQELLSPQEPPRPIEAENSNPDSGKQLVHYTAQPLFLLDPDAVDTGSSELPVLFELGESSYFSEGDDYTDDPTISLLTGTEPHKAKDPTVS
# CHO = CHO cell viability loss, potency – luminescence, cytotoxicity control for TLR9-MyD88 binding inhibitor project, dose response (AID 588339); format: functional, cell-based, hamster; conditions: Cricetulus griseus;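 note: CHO cells stably coexpressing TLR9 and MyD88 fusions from primary screen; compound exposure lasted 48 hours before viability readout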
# [16] = biological target: Heat shock protein HSP 90-alpha (Homo sapiens, UniProt P07900); format: functional, organism-based
# [17] = HIV-1 Vif–A3G interaction blockers – biochemical, TR-FRET, GST-Vif 1-94, biotin-A3G peptide, dose response retest, primary screen (AID 1117319); format: functional;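 note: TR-FRET signal of purified GST-Vif binding a biotinylated A3G peptide; inhibitors lower the FRET signal by blocking Vif and A3G binding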
# [18] = viability loss in Vero cells – cytotoxicity control for Vif-APOBEC3G degradation inhibitor project, dose response (AID 1117358); format: functional; conditions: Vero
# [19] = biological target: 5-hydroxytryptamine receptor 1A (Homo sapiens, UniProt P08908); format: functional
# Exodeoxyribonuclease V = Exodeoxyribonuclease V (Escherichia coli (strain K12), UniProt P04993+P07648+P08394); test: RecBCD inhibition via phage-restricted bacterial growth – absorbance, V66 E. coli, mutant T4 phage, counter-screen for AddAB inhibitor project, dose response (AID 492957); format: functional, cell-based, Escherichia coli str. K-12 substr. MG1655
# [20] = Counterscreen for AddAB inhibitors: absorbance-based bacterial cell-based high throughput dose response assay for inhibitors of bacterial viability. [Related pubchem assays (depositor defined):AID435030, AID449728, AID449731, AID488942, AID488955, AID488956]; format: functional
# [21] = biological target: Voltage-gated inwardly rectifying potassium channel KCNH2 (Homo sapiens, UniProt Q12809); conditions: Potency;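 note: confirmatory quantitative high-throughput screen measuring inhibition of hERG channel activity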
# T5 sequence (P41145 whole entry): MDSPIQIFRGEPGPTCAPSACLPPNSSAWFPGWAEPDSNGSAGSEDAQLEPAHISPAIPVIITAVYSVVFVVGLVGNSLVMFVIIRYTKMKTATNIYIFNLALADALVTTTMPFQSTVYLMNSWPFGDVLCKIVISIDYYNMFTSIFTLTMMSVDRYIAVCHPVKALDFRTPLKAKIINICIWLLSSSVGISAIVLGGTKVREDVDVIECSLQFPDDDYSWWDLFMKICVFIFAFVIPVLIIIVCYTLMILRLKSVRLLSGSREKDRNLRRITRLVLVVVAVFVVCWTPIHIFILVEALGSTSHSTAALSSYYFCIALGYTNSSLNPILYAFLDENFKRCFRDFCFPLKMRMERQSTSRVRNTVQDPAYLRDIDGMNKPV
# Sequence of Exodeoxyribonuclease V (P04993 whole entry): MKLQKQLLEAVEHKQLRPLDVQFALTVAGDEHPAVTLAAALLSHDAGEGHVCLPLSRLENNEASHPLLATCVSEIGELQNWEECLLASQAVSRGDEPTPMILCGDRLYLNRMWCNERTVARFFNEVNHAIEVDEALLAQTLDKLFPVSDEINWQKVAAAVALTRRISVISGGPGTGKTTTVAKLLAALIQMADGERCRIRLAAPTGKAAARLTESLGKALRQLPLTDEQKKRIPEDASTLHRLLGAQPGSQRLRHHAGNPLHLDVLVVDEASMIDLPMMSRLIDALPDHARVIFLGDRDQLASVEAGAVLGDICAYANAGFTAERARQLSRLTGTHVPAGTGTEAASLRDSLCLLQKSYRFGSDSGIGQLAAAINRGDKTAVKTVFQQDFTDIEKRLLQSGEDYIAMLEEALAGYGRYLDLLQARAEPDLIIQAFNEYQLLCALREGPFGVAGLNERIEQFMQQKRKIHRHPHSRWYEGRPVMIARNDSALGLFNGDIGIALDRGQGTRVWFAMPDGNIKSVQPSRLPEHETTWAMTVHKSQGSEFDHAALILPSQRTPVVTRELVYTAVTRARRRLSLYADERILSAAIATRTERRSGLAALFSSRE
# Sequence of Exodeoxyribonuclease V (P07648 whole entry): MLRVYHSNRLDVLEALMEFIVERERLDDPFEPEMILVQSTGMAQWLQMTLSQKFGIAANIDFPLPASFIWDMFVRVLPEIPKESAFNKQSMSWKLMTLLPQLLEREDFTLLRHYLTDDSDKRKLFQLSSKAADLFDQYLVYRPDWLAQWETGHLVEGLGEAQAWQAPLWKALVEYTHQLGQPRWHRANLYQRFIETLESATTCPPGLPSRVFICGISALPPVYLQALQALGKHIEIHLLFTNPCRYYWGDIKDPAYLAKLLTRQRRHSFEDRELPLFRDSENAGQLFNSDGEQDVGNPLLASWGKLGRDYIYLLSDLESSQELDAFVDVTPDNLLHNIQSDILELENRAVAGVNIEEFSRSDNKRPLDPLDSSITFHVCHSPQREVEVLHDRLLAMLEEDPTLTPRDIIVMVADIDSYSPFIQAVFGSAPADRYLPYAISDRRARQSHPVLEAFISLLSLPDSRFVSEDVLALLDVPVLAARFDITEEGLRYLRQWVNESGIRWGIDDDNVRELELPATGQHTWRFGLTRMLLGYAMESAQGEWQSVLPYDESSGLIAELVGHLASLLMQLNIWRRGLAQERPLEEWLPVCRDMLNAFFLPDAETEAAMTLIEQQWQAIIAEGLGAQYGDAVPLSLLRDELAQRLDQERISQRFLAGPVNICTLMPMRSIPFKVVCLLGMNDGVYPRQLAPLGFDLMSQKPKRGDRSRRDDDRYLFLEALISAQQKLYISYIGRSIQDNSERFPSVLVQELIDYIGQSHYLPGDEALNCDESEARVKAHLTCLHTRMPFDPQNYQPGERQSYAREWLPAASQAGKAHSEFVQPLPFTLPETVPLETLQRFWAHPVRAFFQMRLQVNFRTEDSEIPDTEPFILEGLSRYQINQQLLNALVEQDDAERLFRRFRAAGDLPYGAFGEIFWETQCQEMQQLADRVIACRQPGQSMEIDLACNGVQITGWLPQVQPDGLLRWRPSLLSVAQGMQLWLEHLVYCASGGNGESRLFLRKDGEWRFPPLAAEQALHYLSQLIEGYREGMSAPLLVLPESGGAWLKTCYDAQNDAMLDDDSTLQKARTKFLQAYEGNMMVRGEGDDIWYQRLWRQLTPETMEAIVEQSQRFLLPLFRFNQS
# Sequence of Exodeoxyribonuclease V (P08394 whole entry): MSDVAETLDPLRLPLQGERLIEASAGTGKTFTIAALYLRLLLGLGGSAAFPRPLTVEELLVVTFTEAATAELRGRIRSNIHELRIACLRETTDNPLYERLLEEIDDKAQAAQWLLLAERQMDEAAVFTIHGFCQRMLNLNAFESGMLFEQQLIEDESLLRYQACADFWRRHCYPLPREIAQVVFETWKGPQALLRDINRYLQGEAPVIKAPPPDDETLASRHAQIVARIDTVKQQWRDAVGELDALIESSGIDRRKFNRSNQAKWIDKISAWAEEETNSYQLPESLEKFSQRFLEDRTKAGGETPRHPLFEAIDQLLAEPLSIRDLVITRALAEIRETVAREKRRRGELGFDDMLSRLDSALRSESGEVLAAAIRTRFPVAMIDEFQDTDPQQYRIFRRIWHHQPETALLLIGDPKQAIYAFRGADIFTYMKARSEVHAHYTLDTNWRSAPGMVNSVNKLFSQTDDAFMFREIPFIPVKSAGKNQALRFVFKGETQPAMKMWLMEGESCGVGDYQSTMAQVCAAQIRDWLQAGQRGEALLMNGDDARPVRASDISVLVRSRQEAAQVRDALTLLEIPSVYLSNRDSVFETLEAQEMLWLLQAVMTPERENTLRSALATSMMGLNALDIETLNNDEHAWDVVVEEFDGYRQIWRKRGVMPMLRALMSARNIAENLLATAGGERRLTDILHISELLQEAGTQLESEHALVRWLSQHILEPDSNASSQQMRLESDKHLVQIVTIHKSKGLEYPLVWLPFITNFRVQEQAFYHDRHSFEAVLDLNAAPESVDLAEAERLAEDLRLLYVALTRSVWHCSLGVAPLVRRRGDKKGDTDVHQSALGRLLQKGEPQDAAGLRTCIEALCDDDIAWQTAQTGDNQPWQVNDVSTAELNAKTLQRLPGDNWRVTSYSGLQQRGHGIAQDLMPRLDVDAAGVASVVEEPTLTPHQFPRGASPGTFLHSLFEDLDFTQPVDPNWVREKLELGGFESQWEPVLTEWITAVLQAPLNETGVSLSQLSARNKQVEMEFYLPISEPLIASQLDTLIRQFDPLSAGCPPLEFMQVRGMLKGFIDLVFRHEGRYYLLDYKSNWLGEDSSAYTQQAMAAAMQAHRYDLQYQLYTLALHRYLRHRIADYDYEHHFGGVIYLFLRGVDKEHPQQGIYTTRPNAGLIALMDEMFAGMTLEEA
# Sequence of Ephrin type-A receptor 4 (Q03137 whole entry): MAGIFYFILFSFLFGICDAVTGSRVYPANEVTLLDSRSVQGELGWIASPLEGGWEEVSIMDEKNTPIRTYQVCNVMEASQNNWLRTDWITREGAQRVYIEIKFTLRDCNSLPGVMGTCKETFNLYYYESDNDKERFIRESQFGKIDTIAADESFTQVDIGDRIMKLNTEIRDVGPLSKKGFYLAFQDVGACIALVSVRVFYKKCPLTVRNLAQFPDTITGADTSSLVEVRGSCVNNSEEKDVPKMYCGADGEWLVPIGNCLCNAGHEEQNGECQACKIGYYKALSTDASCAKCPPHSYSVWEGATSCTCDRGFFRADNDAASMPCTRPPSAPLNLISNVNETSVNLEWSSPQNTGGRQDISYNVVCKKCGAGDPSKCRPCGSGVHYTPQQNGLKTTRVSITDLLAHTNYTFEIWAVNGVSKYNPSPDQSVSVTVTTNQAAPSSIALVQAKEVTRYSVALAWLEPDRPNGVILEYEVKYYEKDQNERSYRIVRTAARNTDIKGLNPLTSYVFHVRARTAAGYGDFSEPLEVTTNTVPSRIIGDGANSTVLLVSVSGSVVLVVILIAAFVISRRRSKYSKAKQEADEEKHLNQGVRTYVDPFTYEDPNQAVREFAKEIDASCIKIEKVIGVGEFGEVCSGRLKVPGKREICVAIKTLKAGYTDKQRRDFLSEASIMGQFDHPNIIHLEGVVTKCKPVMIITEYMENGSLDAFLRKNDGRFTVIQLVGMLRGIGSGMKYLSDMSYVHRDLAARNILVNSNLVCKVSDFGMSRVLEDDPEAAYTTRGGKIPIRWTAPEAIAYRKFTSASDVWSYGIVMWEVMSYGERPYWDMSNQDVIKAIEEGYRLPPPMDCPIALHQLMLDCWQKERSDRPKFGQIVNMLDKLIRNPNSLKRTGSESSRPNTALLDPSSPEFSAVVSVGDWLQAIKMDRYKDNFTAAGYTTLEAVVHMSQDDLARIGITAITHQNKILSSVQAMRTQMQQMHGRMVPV
# Sequence of Nonstructural protein 1 (Q194T2 whole entry): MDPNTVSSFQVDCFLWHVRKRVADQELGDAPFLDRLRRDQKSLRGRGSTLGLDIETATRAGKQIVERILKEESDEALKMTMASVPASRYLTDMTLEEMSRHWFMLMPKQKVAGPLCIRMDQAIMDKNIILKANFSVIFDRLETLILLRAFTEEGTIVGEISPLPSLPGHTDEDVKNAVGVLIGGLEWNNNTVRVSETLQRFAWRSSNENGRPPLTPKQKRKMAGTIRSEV
# Sequence of 5-hydroxytryptamine receptor 1A (P08908 whole entry): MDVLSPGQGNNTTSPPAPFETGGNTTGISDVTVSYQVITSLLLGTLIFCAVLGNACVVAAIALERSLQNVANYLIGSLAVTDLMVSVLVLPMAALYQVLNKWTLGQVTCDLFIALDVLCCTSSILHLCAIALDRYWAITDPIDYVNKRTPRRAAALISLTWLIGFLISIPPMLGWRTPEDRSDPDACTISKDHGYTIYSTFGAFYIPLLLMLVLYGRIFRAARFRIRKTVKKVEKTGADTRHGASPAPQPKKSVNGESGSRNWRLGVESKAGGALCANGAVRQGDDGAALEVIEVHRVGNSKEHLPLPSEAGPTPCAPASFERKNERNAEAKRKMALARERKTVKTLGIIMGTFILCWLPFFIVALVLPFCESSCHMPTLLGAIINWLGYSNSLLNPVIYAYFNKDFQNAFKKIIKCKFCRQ
structure (smiles),measurement,setting,value
CCOc1ccc2nc(NC3=NC(=O)CC(c4ccc(OC)cc4)N3)nc(C)c2c1 (stereo unspecified),EC50,[1],9.86 µM (active)
same,IC50,[2],5.85 µM (active)
same,EC50,[3],7.4 µM (active)
same,AC50,[4],8.71 µM (active)
same,AC50,[5],9.49 µM (active)
same,IC50,[6],17.6 µM (active)
same,AC50,A-375,27.7 µM (active)
same,IC50,[7],22 µM (active)
same,IC50,[8],> 100 µM (inactive)
same,IC50,Prothrombin,77.6 µM (active)
Cc1cc(C)c2nc(N3CCCN(C(=O)c4ccco4)CC3)c(C#N)cc2c1,IC50,Ephrin type-A receptor 4,16.6 µM (active)
O=C1CSC(=S)N1/N=C/c1ccc(Cl)c([N+](=O)[O-])c1,IC50,Genome polyprotein,> 49.8 µM (not active)
same,EC50,[9],18.6 µM (active)
same,EC50,[10],15.7 µM (active)
O=S1(=O)Nc2c(ccc3cccnc23)-c2ccccc21,EC50,[11],2.82 µM (active)
same,CC50,Vero,4.21 µM (active)
same,IC50,[12],1.3 µM (active)
same,EC50,HT-1080,> 50 µM (not active)
same,EC50,Beta-galactosidase,> 31.5 µM (inactive)
same,IC50,[13],> 32 µM
same,IC50,[14],> 80 µM (inactive)
same,IC50,Nonstructural protein 1,3.63 µM (active)
same,EC50,[15],2.76 µM (active)
same,IC50,CHO,1.77 µM (active)
same,AC50,[16],< 0.195 µM (active)
same,IC50,[17],> 100 µM (active)
same,CC50,[18],13.8 µM (active)
Cc1cc(C(C)(C)C)cc(C)c1CC1=NCCN1 [XYLOMETAZOLINE HYDROCHLORIDE],EC50,[19],0.129 µM (active)
same,IC50,Exodeoxyribonuclease V,> 119 µM (inactive)
same,IC50,[20],29.7 µM (inactive)
same,AC50,[21],14.1 µM (inconclusive)
